Laboratory results reported in ChEMBL document CHEMBL2202963, “GPR119 Modulators for the Treatment of Diabetes, Obesity, and Related Diseases: Patent Highlight” (ACS Med Chem Lett, 2012).
pEC50: −log10 of the molar value.

Key:
[1] = molecular target: T1, Glucose-dependent insulinotropic receptor (Homo sapiens, UniProt Q8TDV5); assay: Agonist activity at human GPR119 expressed in MIN6 cells assessed as intracellular cAMP concentration after 45 mins by Alphascreen analysis; format: functional, cell-based
T1 sequence (Q8TDV5 whole entry): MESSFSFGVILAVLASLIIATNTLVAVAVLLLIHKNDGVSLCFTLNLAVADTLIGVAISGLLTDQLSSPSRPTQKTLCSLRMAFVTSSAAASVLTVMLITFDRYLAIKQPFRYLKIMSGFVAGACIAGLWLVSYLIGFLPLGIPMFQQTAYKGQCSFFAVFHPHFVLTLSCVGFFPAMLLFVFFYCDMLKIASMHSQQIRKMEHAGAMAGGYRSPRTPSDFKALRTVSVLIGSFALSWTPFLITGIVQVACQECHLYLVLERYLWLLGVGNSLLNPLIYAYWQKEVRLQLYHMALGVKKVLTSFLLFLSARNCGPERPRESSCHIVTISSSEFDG

Mus musculus [2] = species on record: Mus musculus; assay: Drug metabolism in mouse assessed as 3-fluoro-4-(5-fluoro-6-(4-(3-(2-fluoropropan-2-yl)-1,2,4-oxadiazol-5-yl)piperidin-1-yl)pyrimidin-4-ylamino)-N-methylbenzamide metabolite by LC/MS/MS analysis; format: ADME, organism-based; settings: in vivo
Canis familiaris [3] = species on record: Canis familiaris; assay: Drug metabolism in dog assessed as 3-fluoro-4-(5-fluoro-6-(4-(3-(2-fluoropropan-2-yl)-1,2,4-oxadiazol-5-yl)piperidin-1-yl)pyrimidin-4-ylamino)-N-methylbenzamide metabolite by LC/MS/MS analysis; format: ADME, organism-based, Canis lupus familiaris; settings: in vivo
Rattus norvegicus [4] = species on record: Rattus norvegicus; assay: Drug metabolism in rat assessed as 3-fluoro-4-(5-fluoro-6-(4-(3-(2-fluoropropan-2-yl)-1,2,4-oxadiazol-5-yl)piperidin-1-yl)pyrimidin-4-ylamino)benzamide metabolite by LC/MS/MS analysis; format: ADME, organism-based; settings: in vivo
Mus musculus [5] = species on record: Mus musculus; assay: Drug metabolism in mouse assessed as 3-fluoro-4-(5-fluoro-6-(4-(3-(2-fluoropropan-2-yl)-l, 2,4-oxadiazol-5-yl)piperidin-l -yl)pyrimidin-4-ylamino)benzoic acid metabolite by LC/MS/MS analysis; format: ADME, organism-based; settings: in vivo
Rattus norvegicus [6] = species on record: Rattus norvegicus; assay: Drug metabolism in rat assessed as 3-fluoro-4-(5-fluoro-6-(4-(3-(2-fluoropropan-2-yl)-l, 2,4-oxadiazol-5-yl)piperidin-l -yl)pyrimidin-4-ylamino)benzoic acid metabolite by LC/MS/MS analysis; format: ADME, organism-based; settings: in vivo
Mus musculus [7] = species on record: Mus musculus; assay: Drug metabolism in mouse assessed as 3-fluoro-4-(5-fluoro-6-(4-(3-(2-fluoropropan-2-yl)-1,2,4-oxadiazol-5-yl)piperidin-1-yl)pyrimidin-4-ylamino)benzamide metabolite by LC/MS/MS analysis; format: ADME, organism-based; settings: in vivo
Rattus norvegicus [8] = species on record: Rattus norvegicus; assay: Drug metabolism in rat assessed as 3-fluoro-4-(5-fluoro-6-(4-(3-(2-fluoropropan-2-yl)-1,2,4-oxadiazol-5-yl)piperidin-1-yl)pyrimidin-4-ylamino)-N-methylbenzamide metabolite by LC/MS/MS analysis; format: ADME, organism-based; settings: in vivo
Rhesus monkey [9] = assay: Drug metabolism in monkey assessed as 3-fluoro-4-(5-fluoro-6-(4-(3-(2-fluoropropan-2-yl)-1,2,4-oxadiazol-5-yl)piperidin-1-yl)pyrimidin-4-ylamino)benzamide metabolite by LC/MS/MS analysis; format: ADME, organism-based, Macaca mulatta; settings: in vivo
Rhesus monkey [10] = assay: Drug metabolism in monkey assessed as 3-fluoro-4-(5-fluoro-6-(4-(3-(2-fluoropropan-2-yl)-l, 2,4-oxadiazol-5-yl)piperidin-l -yl)pyrimidin-4-ylamino)benzoic acid metabolite by LC/MS/MS analysis; format: ADME, organism-based, Macaca mulatta; settings: in vivo
Rhesus monkey [11] = assay: Drug metabolism in monkey assessed as 3-fluoro-4-(5-fluoro-6-(4-(3-(2-fluoropropan-2-yl)-1,2,4-oxadiazol-5-yl)piperidin-1-yl)pyrimidin-4-ylamino)-N-methylbenzamide metabolite by LC/MS/MS analysis; format: ADME, organism-based, Macaca mulatta; settings: in vivo
Canis familiaris [12] = species on record: Canis familiaris; assay: Drug metabolism in dog assessed as 3-fluoro-4-(5-fluoro-6-(4-(3-(2-fluoropropan-2-yl)-1,2,4-oxadiazol-5-yl)piperidin-1-yl)pyrimidin-4-ylamino)benzamide metabolite by LC/MS/MS analysis; format: ADME, organism-based, Canis lupus familiaris; settings: in vivo
Canis familiaris [13] = species on record: Canis familiaris; assay: Drug metabolism in dog assessed as 3-fluoro-4-(5-fluoro-6-(4-(3-(2-fluoropropan-2-yl)-l, 2,4-oxadiazol-5-yl)piperidin-l -yl)pyrimidin-4-ylamino)benzoic acid metabolite by LC/MS/MS analysis; format: ADME, organism-based, Canis lupus familiaris; settings: in vivo
[14] = molecular target: T1, Glucose-dependent insulinotropic receptor; assay: Agonist activity at GPR119 expressed in CHO-K1 cells assessed as cAMP level after 1 hr by homogenous time-resolved fluorescence assay; format: functional, cell-based

With `CCc1cnc(N2CCC(C3Cc4cc(-c5ccc(C(=O)N6CC(F)(F)C6)cc5)ccc4O3)CC2)nc1` (stereo not given) the pEC50 [1] was 6.64.

`CN(C)C(=O)c1ccc(Nc2ncnc(N3CCC(c4nc(C(C)(C)F)no4)CC3)c2F)c(F)c1` was tested, and the Drug metabolism (Mus musculus [2]) was “Active”, the Drug metabolism (Canis familiaris [3]) was “Active” and the Drug metabolism (Rattus norvegicus [4]) was “Active”. The Drug metabolism (Mus musculus [5]) was “Active”, the Drug metabolism (Rattus norvegicus [6]) was “Active” and the Drug metabolism (Mus musculus [7]) was “Active”. For the same compound, the Drug metabolism (Rattus norvegicus [8]) was “Active”, the Drug metabolism (Rhesus monkey [9]) was “Active” and the Drug metabolism (Rhesus monkey [10]) was “Active”. For the same compound, the Drug metabolism (Rhesus monkey [11]) was “Active”, the Drug metabolism (Canis familiaris [12]) was “Active” and the Drug metabolism (Canis familiaris [13]) was “Active”.

Compound `CCc1cnc(N2CCC(C3Cc4cc(C5CCN(S(C)(=O)=O)CC5)ncc4O3)CC2)nc1` (stereo not given) has a pEC50 [1] of 8.70.

`CC(C)(F)c1noc(C2CCN(c3ncnc(Nc4ccc(C(=O)O)cc4F)c3F)CC2)n1` was tested, and the pEC50 [14] was 4.00.
